In US11293927B2, “Screening methods for PARP modulators” (Ribon Therapeutics, Inc., priority 2018, dated 2022):

Experiments:
Assay type in all cases: binding
PARP14 = target: T1, PARP14 (Homo sapiens, UniProt Q460N5); test: In vitro TR-FRET probe displacement assay (Probe C), PARP14; design: made in house; host or cells: E. coli; conditions: TR-FRET displacement of Probe C, PARP14 residues 1611-1801
T1 sequence (Q460N5 1611-1801): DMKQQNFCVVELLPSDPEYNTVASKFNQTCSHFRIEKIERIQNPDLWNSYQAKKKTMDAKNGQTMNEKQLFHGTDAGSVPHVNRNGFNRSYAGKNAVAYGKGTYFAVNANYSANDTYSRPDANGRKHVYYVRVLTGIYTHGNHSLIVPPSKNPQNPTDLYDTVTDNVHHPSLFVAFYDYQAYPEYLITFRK
Procedure: A portion of PARP14 (residues 1611 to 1801 of NP_060024.2 (SEQ ID NO: 4), GenBank Accession No. NM_017554) was overexpressed in E. coli cells. An N-terminal fusion tag, […] (SEQ ID NO: 9), was used to purify the protein from cell lysates. The fusion tag was left on the protein for use in the probe displacement assay.
(§1) Displacement of a Probe C binding to monoPARP active sites was measured using a time-resolved fluorescence resonance energy transfer (TR-FRET) assay. 20 nL of a dose response curve of each test compound was spotted in black 384-well polystyrene proxiplates (Perkin Elmer) using a Mosquito (TTP Labtech). Reactions were performed in an 8 μL volume by adding 6 μL of the monoPARP and Probe C in assay buffer (20 mM HEPES pH=8, 100 mM NaCl, 0.1% bovine serum albumin, 2 mM DTT and 0.002% Tween20), incubating with test compound at 25° C. for 30 min, then adding 2 μL of ULight-anti 6×His and LANCE Eu-W 1024 labeled streptavidin (Perkin Elmer). Binding reactions were equilibrated at 25° C. for an additional 30 min, then read on an Envision platereader equipped with a LANCE/DELFIA top mirror (Perkin Elmer) using excitation of 320 nm and emission of 615 nm and […] with a 90 μs delay. The ratio of the 665/615 nm emission were calculated for each well to determine the amount of complex of monoPARP and Probe C in each well. […]

TIPARP = target: T2, TIPARP (Homo sapiens, UniProt Q7Z3E1); test: In vitro TR-FRET probe displacement assay (Probe C), TIPARP; conditions: TR-FRET displacement of Probe C, TIPARP residues 456-657
T2 construct: made in house; host or cells: E. coli
T2 sequence (Q7Z3E1 456-657): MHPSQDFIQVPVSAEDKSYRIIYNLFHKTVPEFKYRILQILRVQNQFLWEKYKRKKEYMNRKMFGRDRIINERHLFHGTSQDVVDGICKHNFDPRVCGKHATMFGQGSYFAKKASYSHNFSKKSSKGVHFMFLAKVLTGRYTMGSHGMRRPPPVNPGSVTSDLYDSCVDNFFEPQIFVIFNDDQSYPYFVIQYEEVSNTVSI
Procedure: A portion of TIPARP (residues 456 to 657 of NP_056323.2 (SEQ ID NO: 1), GenBank Accession No. NM_015508.4) was overexpressed in E. coli cells. An N-terminal fusion tag, […] (SEQ ID NO: 7), was used to purify the protein from cell lysates. The fusion tag was left on the protein for use in the probe displacement assay.
as §1

PARP10 = target: T3, PARP10 (Homo sapiens, UniProt Q53GL7); test: In vitro TR-FRET probe displacement assay (Probe C), PARP10; design: made in house; host or cells: E. coli; conditions: TR-FRET displacement of Probe C, PARP10 residues 808-1025
T3 sequence (Q53GL7 808-1025): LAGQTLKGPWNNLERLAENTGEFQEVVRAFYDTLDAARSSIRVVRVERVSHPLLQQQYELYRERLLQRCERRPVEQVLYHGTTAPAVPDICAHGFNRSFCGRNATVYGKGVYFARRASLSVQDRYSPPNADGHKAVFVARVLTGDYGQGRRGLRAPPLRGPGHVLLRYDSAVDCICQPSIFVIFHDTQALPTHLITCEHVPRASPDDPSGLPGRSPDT
Procedure: A portion of PARP10 (residues 808 to 1025 of NP_116178.2 (SEQ ID NO: 2), GenBank Accession No. NM_032789.4) was overexpressed in E. coli cells. An N-terminal fusion tag, MAHHHHHHENLYFQSM (SEQ ID NO: 8), was used to purify the protein from cell lysates. The fusion tag was left on the protein for use in the probe displacement assay.
as §1

In the case of `O=c1[nH]ncc(N2Cc3ccc(OC4CCNCC4)cc3C2)c1C(F)(F)F` [Compound A, 5-[5-(Piperidin-4-yloxy)-2,3-dihydro-1H-isoindol-2-yl]-4-(trifluoromethyl)-2,3-dihydropyridazin-3-one], the IC50 (PARP14) is reported as 50 nM, the IC50 (TIPARP) is reported as 7 nM and the IC50 (PARP10) is reported as 80 nM.
